The subject of data set [1] is passive avoidance performance in mice. In words: Step-through passive avoidance task. Type of data set: in vivo, Swiss mice. Particulars: compound alone 50 mg kg^−1 i.p. + vehicle; median (25th; 75th percentiles); observed up to 180 s. As to the method:
The effects of combinations of modafinil (50 mg kg^−1), its metabolites (50 mg kg^−1), or GBR 12909 (25 mg kg^−1) with different classical AEDs were quantified by the step-through passive avoidance task of Venault et al. ([1986]). AEDs were administered at doses corresponding to their ED50 values from the MES test. Each animal received an AED either alone or in combination either with modafinil, sulfone, and acid metabolites or with GBR 12909 on the first day before training. The time before commencement of the training session (after drug administration) in the step-through passive avoidance task was identical to that for the MES test. Subsequently, the animals were placed in an illuminated box (10 × 13 × 15 cm) connected to a larger dark box (25 × 20 × 15 cm) equipped with an electric grid floor. Entrance of the animals to the dark box was punished by an adequate electric footshock (0.6 mA for 2 s). […] On the following day (24 h later), the pretrained animals were placed again into the illuminated box and observed for up to 180 s. Mice that avoided the dark compartment for 180 s were considered as having remembered the task. The time the mice took to enter the dark box was noted, and the median latencies (retention times) with 25th and 75th percentiles were calculated.

Data set [2] concerns skeletal muscular strength in mice. In words: Grip strength test. The data set is classed as in vivo, Swiss mice. The settings on record: compound alone 50 mg kg^−1 i.p. + vehicle; mean ± S.E.M. As to the method:
The effects of combinations of modafinil (50 mg kg^−1), sulfone and acid metabolites (50 mg kg^−1), or GBR 12909 (25 mg kg^−1) with different classical AEDs at doses corresponding to their ED50 values from the MES test on skeletal muscular strength in mice were quantified by the grip strength test of Meyer et al. ([1979]). The grip strength apparatus (BioSeb, Chaville, France) comprised a wire grid (8 × 8 cm) connected to an isometric force transducer (dynamometer). The mice were lifted by the tails so that their forepaws could grasp the grid. The mice were then gently pulled backward by the tail until the grid was released. The maximal force exerted by the mouse before losing grip was recorded. The mean of three measurements for each animal was calculated, and subsequently, the mean maximal force of eight animals per group was determined. The muscular strength in mice is expressed in N (newtons) as the means ± S.E.M. of at least eight determinations.

The test system of data set [3] is motor coordination in mice. Put plainly: Chimney test. Particulars: compound alone 50 mg kg^−1 i.p. + vehicle; n = 8 mice/group. The data set is classed as in vivo, Swiss mice. The text has this:
The chimney test of Boissier et al. ([1960]) was used to quantify the adverse effect potential of classical AEDs administered in combination with modafinil, its metabolites, or GBR 12909. In this test, the animals had to climb backwards up a plastic tube (3-cm inner diameter, 30 cm long), and impairment of motor performance was indicated by the inability of the mice to climb backward up the transparent tube within 60 s.

Data set [4] relates to MES-induced seizures in mice. Set-up: method as in Chatterjie et al. [2004]. The settings on record: 300 mg kg^−1 i.p., administered alone, ref Chatterjie et al. [2004]; cited from earlier work.
The test system of data set [5] is electroconvulsions in mice. More on the design: method as in Chen et al. [2007]. The settings on record: ref Chen et al. [2007], cited from earlier work.
Data set [6] concerns locomotor activation in mice. Set-up: method as in Paterson et al. [2010]. The settings on record: ref Paterson et al. [2010]; cited from earlier work.
In data set [7] the test system is CYP3A4/5. Particulars: human liver microsomes; ref Robertson and Hellriegel [2003]; cited from earlier work. (In general: Liver microsomes are a subcellular fraction often used to study metabolism.)
Data set [8] concerns CYP2C9. The settings on record: human hepatocytes; ref Robertson and Hellriegel [2003]; cited from earlier work.
In data set [9] the test system is threshold for electroconvulsions in mice. Put plainly: Maximal electroshock seizure threshold (MEST) test. A general note: In the maximal electroshock model the usual endpoint is tonic extension of the hind limbs.

Like-named read-outs stand apart in the source and are kept apart here.

Results on 1 compound are retold here after article PMC4480820, “Modafinil and its metabolites enhance the anticonvulsant action of classical antiepileptic drugs in the mouse maximal electroshock-induced seizure model” (Psychopharmacology, 2015).

With `NC(=O)C[S+]([O-])C(c1ccccc1)c1ccccc1` (stereo not shown) [MOD, diphenylmethylsulfinylacetamide], in data set [1], the Retention time is reported as 180 (123.5; 180) s. Besides, the Grip strength in data set [2] amounted to 0.908 ± 0.053 N. In addition, the “Motor coordination impairment (number of animals showing impairment in the chimney test)” value in [3] is on record as 0/8. Further, the “Protection against MES-induced seizures” value in data set [4] is given as 100%. Besides, the “Mice protected against electroconvulsions” value in [5] (22.5 mg kg^−1 i.p.) is listed as 50%; in [5] (45 mg kg^−1 i.p.) it was 70%; in [5] (90 mg kg^−1 i.p.), 90%; in data set [5] (180 mg kg^−1 i.p.), 70%. Also, the “Dose eliciting equivalent locomotor activation” value in data set [6] was 150 mg/kg. The “Inhibition of CYP3A4/5” value in data set [7] is “weak inhibition”. Further, the “Inhibition of CYP2C9” value in data set [8] is given as “inhibit”. Moreover, the “TI (percentage of threshold increase over vehicle control)” value in data set [9] (12.5 mg kg^−1 i.p.) is listed as −2.78%; in [9] (25 mg kg^−1 i.p.) it was 2.78%; in data set [9] (50 mg kg^−1 i.p.) it was 22.88%; in data set [9] (75 mg kg^−1 i.p.), 35.46%. Also, the “TID20 (dose that increases threshold by 20 %)” value in data set [9] (i.p., 30 min before test, from linear regression of dose vs threshold increase) is 49.12 mg/kg.
